# Like-named read-outs stand apart in the source and are kept apart here.
# Key:
# [1] = target: Class C(AmpC) beta-lactamase (UniProt P00811); experiment: beta-lactamase inhibition, spectrophotometric with nitrocefin; type: biochemical; details: for IC50: 10-minute preincubation of enzyme with inhibitor at 25° C., nitrocefin substrate; for inhibition of class C(AmpC) enzymes, in words: summary of Table I
# [2] = target: Class A(TEM-1) beta-lactamase (Escherichia coli, UniProt P62593); experiment: as above; type: biochemical; details: for IC50: 10-minute preincubation of enzyme with inhibitor at 25° C., nitrocefin substrate; for inhibition of class A(TEM-1) enzymes, in words: summary of Table I
# Sequence of Class A(TEM-1) beta-lactamase (P62593 24-286 limits assumed): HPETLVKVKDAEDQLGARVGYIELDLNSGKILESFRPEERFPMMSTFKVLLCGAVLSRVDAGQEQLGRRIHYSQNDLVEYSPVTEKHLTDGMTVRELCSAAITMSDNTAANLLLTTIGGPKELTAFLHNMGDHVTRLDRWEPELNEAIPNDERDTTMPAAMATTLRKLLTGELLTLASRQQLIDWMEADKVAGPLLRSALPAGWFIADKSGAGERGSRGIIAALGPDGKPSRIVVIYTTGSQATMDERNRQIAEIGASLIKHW
# [3] = test system: E. coli + (AmpC); experiment: microbial assay, MIC in broth, antibiotic with inhibitor 1:1; type: cell-based; details: Escherichia coli, serial two-fold dilutions
# Experimental: (§1) Representative Example 9 was tested in a microbial assay in combination with the penicillin antibiotic Piperacillin. In these tests, minimum inhibitory concentration(MIC) are determined in broth using serial two-fold dilutions with a 1:1 ratio of Piperacillin to inhibitor(N. A. Kuck; N. V. Jacobs; P. J. Peterson; W. J. Weiss; and R. T. Testa, in “Antimicrobial Agents and Chemotherapy”, Vol. 33, 1989, pages 1964-1969).
# [4] = test system: E. coli 300 + (AmpC); experiment: as above; type: cell-based; details: for MIC: Escherichia coli, Table II, combinations 1:1 ratio antibiotic to inhibitor
# Experimental: as §1
# [5] = test system: E. coli GC 6265 (TEM-1); experiment: as above; type: cell-based; details: for MIC: Escherichia coli, Table II, combinations 1:1 ratio antibiotic to inhibitor
# Experimental: as §1
# [6] = test system: P. aeroginosa (AmpC derepressed); experiment: as above; type: cell-based; details: serial two-fold dilutions
# Experimental: as §1
# [7] = test system: S. marcescens (AmpC); experiment: as above; type: cell-based; details: Serratia marcescens, serial two-fold dilutions
# Experimental: as §1
# [8] = target: Class B(Imi-1) beta-lactamase (Enterobacter cloacae, UniProt Q46991); experiment: beta-lactamase inhibition, spectrophotometric with nitrocefin; type: biochemical; details: 10-minute preincubation of enzyme with inhibitor at 25° C., nitrocefin substrate
# Sequence of Class B(Imi-1) beta-lactamase (Q46991 entry or part of it): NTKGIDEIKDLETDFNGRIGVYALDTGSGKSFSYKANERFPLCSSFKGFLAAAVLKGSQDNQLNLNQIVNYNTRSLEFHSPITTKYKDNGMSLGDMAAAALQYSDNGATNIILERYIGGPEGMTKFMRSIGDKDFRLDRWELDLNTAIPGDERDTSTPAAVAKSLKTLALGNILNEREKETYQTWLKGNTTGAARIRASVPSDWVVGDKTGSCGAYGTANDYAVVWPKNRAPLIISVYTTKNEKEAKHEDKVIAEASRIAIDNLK
# [9] = test system: E. coli + (TEM-1); experiment: microbial assay, MIC in broth, antibiotic with inhibitor 1:1; type: cell-based; details: Table III, serial two-fold dilutions, combinations 1:1 ratio Piperacillin to inhibitor
# Experimental: as §1
# [10] = Table II, combinations 1:1 ratio antibiotic to inhibitor
# [11] = broth, serial two-fold dilutions
# [12] = Table II, combinations 1:1 ratio antibiotic to inhibitor, read-out: MIC P. aeroginosa (AmpC derepressed)
# [13] = summary of Table II, combined with piperacillin or cefotaxime
# [14] = Table III, combinations 1:1 ratio Piperacillin to inhibitor
# [15] = Table III, broth, serial two-fold dilutions, combinations 1:1 ratio Piperacillin to inhibitor
smiles,measurement,setting,value
"CC(C)(C)[Si](C)(C)OC1C[C@@]12C(=O)N1[C@@H](C(=O)O)C(C)(C)S(=O)(=O)[C@@H]12 (single isomer, unassigned) [Example 8]",IC50,[1],1900 nM
same,IC50,[2]; IC50 Class A(TEM-1),17000 nM
"CC(C)(C)[Si](C)(C)OC1CC12C(=O)N1[C@@H](C(=O)O)C(C)(C)S(=O)(=O)[C@@H]12 (single isomer, unassigned) [Example 10]",IC50,[1],343 nM
same,"inhibition of class C(AmpC) enzymes, in words",[1],very potent inhibitors
same,IC50,[2]; IC50 Class A(TEM-1),12000 nM
"CC1(C)C(C(=O)O)N2C(=O)C3(CC3OC3CCCCC3)C2S1(=O)=O (single isomer, unassigned) [Example 12]",IC50,[1],32000 nM
same,IC50,[2]; IC50 Class A(TEM-1),1700 nM
"CC1(C)C(C(=O)O)N2C(=O)C3(CC3OC3CCCCC3)C2S1(=O)=O (single isomer, unassigned) [Example 13]",IC50,[1],37 nM
same,"inhibition of class C(AmpC) enzymes, in words",[1],very potent inhibitors
same,IC50,[2]; IC50 Class A(TEM-1),510 nM
same,"inhibition of class A(TEM-1) enzymes, in words",[2],potent inhibitors
"CC1(C)C(C(=O)O)N2C(=O)C3(CC3OC3CCCCC3)C2S1(=O)=O (single isomer, unassigned) [Example 14]",IC50,[1],3160 nM
same,IC50,[2]; IC50 Class A(TEM-1),130000 nM
"CO/N=C(\C(=O)N[C@@H]1C(=O)N2C(C(=O)O)=C(COC(C)=O)CS[C@H]12)c1csc(N)n1 [Cefotaxime, cefotaxime]",MIC,[3]; [10],> 64 µg/mL
same,MIC,[4]; [11],16 µg/mL
same,MIC,[5]; [11],64 µg/mL
same,MIC,[6]; [12],> 64 µg/mL
same,MIC,[7]; [10],8 µg/mL
"CC(C)(C)[Si](C)(C)O[C@H]1C[C@]12C(=O)N1[C@@H](C(=O)[O-])C(C)(C)S(=O)(=O)[C@@H]12.[Na+] [Example 9, (1R,2S,5R)-2-[(tert-Butyldimethylsilyl)oxy]-3,3-dimethyl-7-oxospiro[cyclopropane-1,6-[4]thia[1]azabicyclo[3.2.0]-heptane]-2-carboxylic acid, Sodium Salt, 4,4-dioxide]",IC50,[1],21 nM
same,"inhibition of class C(AmpC) enzymes, in words",[1],very potent inhibitors
same,IC50,[2]; read-out: IC50 Class A(TEM-1),650 nM
same,"inhibition of class A(TEM-1) enzymes, in words",[2],potent inhibitors
same,IC50,[8],12000 nM
same,"activity as a beta-lactamase inhibitor with E.coli 300+(AmpC), in words",[4]; [13],very potent activity
same,"activity as a beta-lactamase inhibitor with E.coli GC6265 (TEM-1), in words",[5]; [13],very potent activity
CCN1CCN(C(=O)N[C@@H](C(=O)N[C@@H]2C(=O)N3[C@@H]2SC(C)(C)[C@@H]3C(=O)O)c2ccccc2)C(=O)C1=O [Piperacillin],MIC,[3]; [10],> 64 µg/mL
same,MIC,[3]; [14],32 µg/mL
same,MIC E. coli + (TEM-1),[9],>64 µg/mL
same,MIC,[4]; [11],32 µg/mL
same,MIC E. coli 300 + (AmpC),[4]; [15],32 µg/mL
same,MIC,[5]; [11],> 64 µg/mL
same,MIC E. coli GC 6265 (TEM-1),[5]; [15],>64 µg/mL
same,MIC,[6]; [12],> 64 µg/mL
same,MIC,"[6]; Table III, combinations 1:1 ratio Piperacillin to inhibitor, read-out: MIC P. aeroginosa",> 64 µg/mL
same,MIC,[7]; [10],32 µg/mL
same,MIC,[7]; [14],64 µg/mL
"CC1(C)[C@H](C(=O)O)N2C(=O)C[C@H]2S1(=O)=O [Sulbactam, reference compound]",IC50,[1],65900 nM
